{"source": "paper PMC7082846", "about": "(ACS infectious diseases, 2019)", "key": {"[1]": {"system": "PBMC-derived dendritic cells", "experiment": "Cytokine mRNA induction", "details": "BNBC 100 μM or LPS 10 μg/ml, 6 h"}, "[2]": {"system": "PBMC-derived dendritic cells", "experiment": "CD80 expression by flow cytometry in PBMC-derived dendritic cells", "type": "cell-based, human", "details": "BNBC 50 μM or LPS 10 μg/ml, 48 h; gated from CD11c+ cells"}, "Zika virus (ZIKV)": {"system": "Zika virus (ZIKV)", "experiment": "Antiviral assay, pre-treated THF cells infected with ZIKV", "type": "cell-based, Zika virus (PRVABC59 strain)", "details": "THF cells pre-treated 8 h"}, "Dengue virus (DENV)": {"system": "Dengue virus (DENV)", "type": "cell-based, dengue virus (serotype 2, New Guinea C strain)", "details": "THF cells pre-treated 8 h"}, "Yellow fever virus (YFV)": {"system": "Yellow fever virus (YFV)", "type": "cell-based, Yellow fever virus (17D strain)", "details": "THF cells pre-treated 8 h"}, "[3]": {"biological_target": "human STING with truncation of carboxyl-terminal domain (CTD) (Homo sapiens, UniProt Q86WV6)", "sequence (Q86WV6 1-340 limits assumed)": "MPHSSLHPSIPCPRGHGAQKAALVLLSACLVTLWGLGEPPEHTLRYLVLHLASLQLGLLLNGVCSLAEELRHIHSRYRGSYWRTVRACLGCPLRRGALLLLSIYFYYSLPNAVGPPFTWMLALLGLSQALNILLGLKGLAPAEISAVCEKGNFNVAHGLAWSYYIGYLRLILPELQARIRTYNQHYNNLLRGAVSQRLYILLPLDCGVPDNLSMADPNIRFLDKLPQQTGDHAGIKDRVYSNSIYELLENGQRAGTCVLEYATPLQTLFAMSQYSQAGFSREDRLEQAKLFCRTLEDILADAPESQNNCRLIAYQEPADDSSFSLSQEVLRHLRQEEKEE", "experiment": "ISG54 luciferase reporter assay in HepAD38/cGAS-STINGΔC/ISG54Luc cells", "type": "cell-based", "details": "4 h treatment"}, "cGAS-STING pathway": {"system": "cGAS-STING pathway", "experiment": "ISG54 luciferase reporter assay in HepAD38/cGAS-STING/ISG54Luc cells", "type": "cell-based, human", "details": "4 h treatment"}, "[4]": {"experiment": "Metabolic stability in mouse liver microsomes", "type": "in vitro ADME"}, "human STING [5]": {"biological_target": "T1, human STING (Homo sapiens, UniProt Q86WV6)", "T1 sequence (Q86WV6 whole entry)": "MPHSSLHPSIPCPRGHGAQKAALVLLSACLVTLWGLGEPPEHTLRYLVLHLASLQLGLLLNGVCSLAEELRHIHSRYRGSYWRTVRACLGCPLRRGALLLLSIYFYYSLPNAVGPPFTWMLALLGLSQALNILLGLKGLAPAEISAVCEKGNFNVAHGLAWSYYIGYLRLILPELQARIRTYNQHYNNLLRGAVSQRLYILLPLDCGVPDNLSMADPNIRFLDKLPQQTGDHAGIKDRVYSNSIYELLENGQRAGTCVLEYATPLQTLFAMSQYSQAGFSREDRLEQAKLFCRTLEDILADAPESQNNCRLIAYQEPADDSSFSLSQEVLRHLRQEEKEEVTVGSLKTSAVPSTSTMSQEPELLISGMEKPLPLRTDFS", "experiment": "Cytokine mRNA induction", "type": "cell-based", "details": "6 h, qRT-PCR"}, "human PBMCs": {"system": "human PBMCs", "experiment": "Cytokine mRNA induction", "details": "6 h, qRT-PCR"}, "human STING [6]": {"biological_target": "T1, human STING", "experiment": "ISG54 luciferase reporter assay in HepG2/STING/ISG54Luc cells", "type": "cell-based"}, "THF cells [7]": {"system": "THF cells", "experiment": "Cytotoxicity in THF cells", "type": "cell-based, human"}, "[8]": {"experiment": "Aqueous solubility in PBS", "type": "physicochemical"}, "[9]": {"experiment": "Plasma protein binding, human", "type": "in vitro ADME"}, "[10]": {"system": "cytochrome P450 (Cyp) enzymes (CYP1A2, 2A6, 2B6, 2C8, 2C9, 2C19, 2D6, CYP2E1 and 3A4)", "experiment": "Cytochrome P450 inhibition panel", "type": "in vitro ADME", "details": "inhibition = greater than 50% inhibition at 10 μM"}, "[11]": {"experiment": "Plasma protein binding, mouse", "type": "in vitro ADME"}, "THF cells [12]": {"system": "THF cells", "experiment": "Cytokine response"}, "[13]": {"experiment": "Metabolic stability in human liver microsomes", "type": "in vitro ADME"}, "Caco-2 permeability": {"experiment": "Caco-2 permeability", "type": "in vitro ADME", "details": "human"}, "mouse STING": {"biological_target": "T2, mouse STING (Mus musculus, UniProt Q3TBT3)", "T2 sequence (Q3TBT3 1-378)": "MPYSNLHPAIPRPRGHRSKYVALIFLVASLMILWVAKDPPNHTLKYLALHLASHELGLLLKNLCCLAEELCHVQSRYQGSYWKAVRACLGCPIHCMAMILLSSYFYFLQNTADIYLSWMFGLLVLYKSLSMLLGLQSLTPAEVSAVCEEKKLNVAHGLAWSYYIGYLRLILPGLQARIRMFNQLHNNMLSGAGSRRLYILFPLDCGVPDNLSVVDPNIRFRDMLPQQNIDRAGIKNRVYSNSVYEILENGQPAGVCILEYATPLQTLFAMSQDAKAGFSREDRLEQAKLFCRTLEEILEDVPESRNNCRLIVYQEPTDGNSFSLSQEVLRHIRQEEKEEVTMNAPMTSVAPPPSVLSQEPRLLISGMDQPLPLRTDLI", "experiment": "IFN-β mRNA induction", "type": "cell-based", "details": "HepG2/mSTING cells, 6 h, qRT-PCR"}, "human STING [14]": {"biological_target": "T1, human STING", "experiment": "IRF3 phosphorylation", "type": "cell-based", "details": "100 μM, 2 h; HepG2/STING vs HepG2/STINGΔC cells"}, "[15]": {"system": "HepAD38/cGAS-STING/ISG54Luc cells", "type": "cell-based", "details": "human, 4 h"}, "[16]": {"details": "MOI 0.1, 48 h, qRT-PCR, maximal reduction"}}, "note": "Several values for one entry are separate records, joined by “and”; a condition that tells them apart may be missing. Identical values can stand only once."}
{"compound": "Lipopolysaccharides [LPS, reference compound]", "values": [{"measurement": "Induction of cytokine mRNAs", "setting": "[1]", "result": "efficiently induced the expression of IFN-β and IL-29 mRNAs and to a lesser extent, TNF-α and IL-6 mRNAs"}, {"measurement": "Induction of CD80 expression", "setting": "[2]", "result": "significantly induced expression of CD80"}]}
{"compound": "O=C(NCc1ccco1)c1ccc2c(c1)N(Cc1c(F)cccc1Cl)C(=O)CS2", "note": "[G10, reference compound]", "values": [{"measurement": "Reduction of ZIKV RNA", "setting": "Zika virus (ZIKV); compared with BNBC", "result": "reduced virial RNAs in similar potencies"}, {"measurement": "Reduction of DENV RNA", "setting": "Dengue virus (DENV); compared with BNBC", "result": "reduced virial RNAs in similar potencies"}, {"measurement": "Reduction of YFV RNA", "setting": "Yellow fever virus (YFV); compared with BNBC", "result": "reduced virial RNAs in similar potencies"}]}
{"compound": "O=C(Nc1cccc2ccccc12)c1cc2c(cc1Br)OCO2", "note": "[BNBC, 6-bromo-N-(naphthalen-1-yl)benzo[d][1,3]dioxole-5-carboxamide]", "values": [{"measurement": "Reduction of intracellular ZIKV RNA level", "setting": "Zika virus (ZIKV); [16]", "result": "≤ 800", "unit": "fold"}, {"measurement": "Induction of ISG54-driven luciferase expression", "setting": "[3]", "result": "did not induce luciferase expression"}, {"measurement": "Reduction of intracellular DENV RNA level", "setting": "Dengue virus (DENV); [16]", "result": "up to 90 fold"}, {"measurement": "Induction of ISG54-driven luciferase expression", "setting": "cGAS-STING pathway", "result": "induced luciferase expression in a concentration-dependent manner"}, {"measurement": "half-life", "setting": "[4]", "result": 2.21, "unit": "min"}, {"measurement": "Induction of IFN-β, IL29 (IFN-λ1) and TNF-α mRNA expression", "setting": "human STING [5]; HepG2/STING cells", "result": "concentration-dependently induced IFN-β, IL29 (IFN-λ1) and TNF-α mRNA expression"}, {"measurement": "Induction of cytokine expression", "setting": "human PBMCs", "result": "efficiently induced expression of type I and type III IFN, but to a lesser extent, TNF-α"}, {"measurement": "Induction of ISG54 promoter-driven luciferase expression", "setting": "human STING [6]; HepG2/STING/ISG54 reporter cells lacking cGAS", "result": "concentration-dependently induced ISG54 driven luciferase expression"}, {"measurement": "MinEC5X", "setting": "human STING [6]; Minimum Effective Concentration to induce 5-fold luciferase activity relative to mock-treated control, HepG2/STING/ISG54Luc cells, 4 h", "result": 2.2, "unit": "µM"}, {"measurement": "Maximum induction (fold)", "setting": "human STING [6]; maximum fold of luciferase induction, HepG2/STING/ISG54Luc cells, 4 h", "result": 20.5, "unit": "fold"}, {"measurement": "Cytotoxicity", "setting": "THF cells [7]", "result": "absence of cytotoxicity"}, {"measurement": "solubility", "setting": "[8]; pH 4, aqueous buffer", "result": 3.57, "unit": "µM"}, {"measurement": "solubility", "setting": "[8]; pH 7.4, aqueous buffer", "result": 2.62, "unit": "µM"}, {"measurement": "fraction unbound", "setting": "[9]", "result": 0.0266}, {"measurement": "Cyp IC50 < 10 μM (number of Cyps/reactions inhibited out of 10)", "setting": "[10]", "result": "5 out of 10 and 5/10"}, {"measurement": "fraction unbound", "setting": "[11]", "result": 0.0212}, {"measurement": "Effect of STING knockout on compound-induced IFN-β mRNA expression", "setting": "THF cells [12]; THF cells with knockout of STING, but not TRIF or IPS-1 (MAVS), 50 μM, 6 h", "result": "completely abolished"}, {"measurement": "Induction of cytokine mRNA and IFN-β secretion", "setting": "THF cells [12]; THF cells, mRNA 6 h, ELISA 18 h", "result": "concentration-dependently induced IFN-β, IL-28A and IL-6 mRNA expression as well as secretion of IFN-β into culture media"}, {"measurement": "Reduction of intracellular YFV RNA level", "setting": "Yellow fever virus (YFV); [16]", "result": "≤ 150", "unit": "fold"}, {"measurement": "Induction of cytokine mRNAs", "setting": "[1]", "result": "efficiently induced the expression of IFN-β and IL-29 mRNAs and to a lesser extent, TNF-α and IL-6 mRNAs"}, {"measurement": "half-life", "setting": "[13]", "result": 20, "unit": "min"}, {"measurement": "Papp A→B", "setting": "Caco-2 permeability", "result": 145, "unit": "nm/s"}, {"measurement": "Papp B→A", "setting": "Caco-2 permeability", "result": 59.8, "unit": "nm/s"}, {"measurement": "efflux ratio", "setting": "Caco-2 permeability", "result": 0.41}, {"measurement": "Induction of IFN-β mRNA expression", "setting": "mouse STING", "result": "not in parental HepG2 cells, HepG2/STINGΔC cells and HepG2-derived cell line expressing mouse STING (HepG2/mSTING)"}, {"measurement": "IRF3 phosphorylation and nuclear translocation", "setting": "human STING [14]", "result": "only induced IRF3 phosphorylation and nuclear translocation in HepG2/STING cells"}, {"measurement": "Cytotoxicity: concentration up to which no cytotoxicity was detected", "setting": "[15]", "result": "> 200", "unit": "µM"}, {"measurement": "Induction of CD80 expression", "setting": "[2]", "result": "significantly induced expression of CD80"}]}
{"compound": "Cc1ccc2c(=O)c3cccc(CC(=O)O)c3oc2c1C", "note": "[DMXAA, 5’,6’-dimethylxanthenone-4-acetic acid, reference compound]", "values": [{"measurement": "Induction of IFN-β mRNA expression", "setting": "human STING [5]; HepG2/STING cells expressing human STING", "result": "not in HepG2/STING cells"}]}
